Where two headings read alike, the source gives them in different places. One block for each molecule: values may come before it.
Assays:
[1] = test system: NF-κB pathway, THP1-Dual™ cells; assay: STING reporter assay in THP1-Dual cells, NF-κB pathway (SEAP, QUANTI-Blue); assay type: cell-based, human; conditions: THP1-Dual cells, 10% human plasma, 20 hours, SEAP, 100% activation = 100 μM cGAMP, read-out: NFkB (EC50 μM)
Summary of the method: (§1)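 Activation normalised between DMSO-only baseline and 100 μM cGAMP maximum, after 20 h compound exposure (starting at 100 μM final) at 37° C, 5% CO2. Supernatant SEAP (QUANTI-Blue, OD620) reports NF-κB; secreted luciferase (QUANTI-Luc, RLU at 5 min) reports IRF.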

[2] = test system: IRF pathway, THP1-Dual™ cells; assay: STING reporter assay in THP1-Dual cells, IRF pathway (Lucia luciferase, QUANTI-Luc); assay type: cell-based, human; conditions: THP1-Dual cells, 10% human plasma, 20 hours, Lucia luciferase, 100% activation = 100 μM cGAMP, read-out: IRF (EC50 μM)
Summary of the method: as §1

- EC50 ([1]; Homo sapiens, THP1-Dual, 20 h): 3 µM
- EC50 ([2]; Homo sapiens, THP1-Dual, 20 h): 3.1 µM
SMILES: COC(OC(=O)c1cc(F)cc2cc(CNC(=O)c3cnc4cccnn34)oc12)C(F)(F)F (single isomer, unassigned) [EXAMPLE 313, 2,2,2-Trifluoro-1-methoxyethyl 5-fluoro-2-((imidazo[1,2-b]pyridazine-3-carboxamido)methyl)benzofuran-7-carboxylate]

- EC50 [1]: 3.1 µM
- EC50 [2]: 4 µM
SMILES: COC(=O)c1cc(Cl)cc2cc(CNC(=O)c3cnn4ccc(OC)nc34)oc12 [Example 51, Methyl 5-chloro-2-((5-methoxypyrazolo[1,5-a]pyrimidine-3-carboxamido)methyl) benzofuran-7-carboxylate]

- EC50 ([1]; Homo sapiens, THP1-Dual, 20 h): 1.1 µM
- EC50 ([2]; Homo sapiens, THP1-Dual, 20 h): 0.75 µM
SMILES: COC(=O)c1cc(C(F)(F)F)cc2cc(CNC(=O)c3cnn4cccnc34)oc12 [EXAMPLE 106, Methyl 2-((pyrazolo[1,5-a]pyrimidine-3-carboxamido)methyl)-5-(trifluoromethyl) benzofuran-7-carboxylate]

- EC50 ([1]; Homo sapiens, THP1-Dual, 20 h): 2 µM
- EC50 ([2]; Homo sapiens, THP1-Dual, 20 h): 1.7 µM
SMILES: COC(=O)c1cc(C)cc2cc(C(C)NC(=O)c3cnn4cccnc34)oc12 (racemic) [Example 96, Methyl 5-methyl-2-(1-(pyrazolo[1,5-a]pyrimidine-3-carboxamido)ethyl)benzofuran-7-carboxylate (racemic)]

- EC50 ([1]; Homo sapiens, THP1-Dual, 20 h): 0.35 µM
- EC50 ([2]; Homo sapiens, THP1-Dual, 20 h): 0.25 µM
SMILES: O=C(OC(CF)CF)c1cc(F)cc2c(Cl)c(CNC(=O)c3cnn4cccnc34)oc12 [EXAMPLE 290, 1,3-Difluoropropan-2-yl 3-chloro-5-fluoro-2-((pyrazolo[1,5-a]pyrimidine-3-carboxamido)methyl)benzofuran-7-carboxylate]

- EC50 ([1]; Homo sapiens, THP1-Dual, 20 h): 49 µM
- EC50 ([2]; Homo sapiens, THP1-Dual, 20 h): 48 µM
SMILES: COC(=O)Cc1cccc2cc(CNC(=O)c3cnn4cccnc34)oc12 [EXAMPLE 20, Methyl 2-(2-((pyrazolo[1,5-a]pyrimidine-3-carboxamido)methyl)benzofuran-7-yl)acetate]

- EC50 ([1]; Homo sapiens, THP1-Dual, 20 h): 22 µM
- EC50 ([2]; Homo sapiens, THP1-Dual, 20 h): 16 µM
SMILES: COC(=O)c1cc(Br)cc2cc(CN3CCc4ccncc4C3=O)oc12 [Example 81, Methyl 5-bromo-2-((1-oxo-3,4-dihydro-2,7-naphthyridin-2(1H)-yl)methyl)benzofuran-7-carboxylate]

- EC50 ([1]; Homo sapiens, THP1-Dual, 20 h): 0.62 µM
- EC50 ([2]; Homo sapiens, THP1-Dual, 20 h): 0.67 µM
SMILES: O=C(OCC(F)(F)F)c1cccc2c(Cl)c(CNC(=O)c3cnn4cccnc34)oc12 [EXAMPLE 223, 2,2,2-Trifluoroethyl 3-chloro-2-((pyrazolo[1,5-a]pyrimidine-3-carboxamido)methyl)benzofuran-7-carboxylate]

- EC50 ([1]; Homo sapiens, THP1-Dual, 20 h): 1 µM
- EC50 ([2]; Homo sapiens, THP1-Dual, 20 h): 1.8 µM
SMILES: O=C(OC1CC(F)(F)C1)c1cc(Cl)cc2cc(CNC(=O)c3cnn4cccnc34)oc12 [EXAMPLE 245, 3,3-Difluorocyclobutyl 5-chloro-2-((pyrazolo[1,5-a]pyrimidine-3-carboxamido)methyl)benzofuran-7-carboxylate]

- EC50 ([1]; Homo sapiens, THP1-Dual, 20 h): 4.8 µM
- EC50 ([2]; Homo sapiens, THP1-Dual, 20 h): 6.7 µM
SMILES: O=C(OCCCN1CCOCC1)c1cc(Cl)cc2cc(CNC(=O)c3cnn4cccnc34)oc12 [EXAMPLE 256, 3-Morpholinopropyl 5-chloro-2-((pyrazolo[1,5-a]pyrimidine-3-carboxamido)methyl)benzofuran-7-carboxylate]

- EC50 ([1]; Homo sapiens, THP1-Dual, 20 h): 6.3 µM
- EC50 ([2]; Homo sapiens, THP1-Dual, 20 h): 9.6 µM
SMILES: C[C@@H](OC(=O)c1c(F)c(F)cc2cc(CNC(=O)c3cnn4cccnc34)oc12)C(F)(F)F [EXAMPLE 284, (R)-1,1,1-Trifluoropropan-2-yl 5,6-difluoro-2-((pyrazolo[1,5-a]pyrimidine-3-carboxamido)methyl)benzofuran-7-carboxylate]

- EC50 [1]: 8.9 µM
- EC50 [2]: 7.7 µM
SMILES: COC(=O)c1cc(Cl)cc2cc(CNC(=O)c3cncc(OC)n3)oc12 [Example 60, Methyl 5-chloro-2-((6-methoxypyrazine-2-carboxamido)methyl) benzofuran-7-carboxylate]

- EC50 [1]: 1.1 µM
- EC50 [2]: 1.1 µM
SMILES: COC(=O)c1cc(Cl)cc2cc(CNC(=O)c3cnn4cc(C)cnc34)oc12 [Example 55, Methyl 5-chloro-2-((6-methylpyrazolo[1,5-a]pyrimidine-3-carboxamido)methyl) benzofuran-7-carboxylate]

- EC50 [1]: 0.89 µM
- EC50 [2]: 0.88 µM
SMILES: CC(OC(=O)c1cc(Cl)cc2cc(CNC(=O)c3cnn4cccnc34)oc12)C(F)(F)F (single isomer, unassigned) [EXAMPLE 329, 1,1,1-Trifluoropropan-2-yl 5-chloro-2-((pyrazolo[1,5-a]pyrimidine-3-carboxamido)methyl)benzofuran-7-carboxylate]

- EC50 ([1]; Homo sapiens, THP1-Dual, 20 h): 0.52 µM
- EC50 ([2]; Homo sapiens, THP1-Dual, 20 h): 0.4 µM
SMILES: O=C(OCC(F)(F)F)c1cc(C(F)(F)F)cc2cc(CNC(=O)c3cnn4cccnc34)oc12 [EXAMPLE 283, 2,2,2-Trifluoroethyl 2-((pyrazolo[1,5-a]pyrimidine-3-carboxamido)methyl)-5-(trifluoromethyl)benzofuran-7-carboxylate]

- EC50 ([1]; Homo sapiens, THP1-Dual, 20 h): 98 µM
- EC50 ([2]; Homo sapiens, THP1-Dual, 20 h): 73 µM
SMILES: O=C(OC1CNC1)c1cc(Cl)cc2cc(CNC(=O)c3cnn4cccnc34)oc12 [EXAMPLE 248, Azetidin-3-yl 5-chloro-2-((pyrazolo[1,5-a]pyrimidine-3-carboxamido)methyl)benzofuran-7-carboxylate]

- EC50 [1]: 2.6 µM
- EC50 [2]: 2.6 µM
SMILES: COC(=O)c1cc(Cl)cc2cc(CNC(=O)c3cnn4ccc(C)nc34)oc12 [Example 54, Methyl 5-chloro-2-((5-methylpyrazolo[1,5-a]pyrimidine-3-carboxamido)methyl) benzofuran-7-carboxylate]

- EC50 [1]: 4.5 µM
- EC50 [2]: 4.3 µM
SMILES: CC(OC(=O)c1cc(F)cc2cc(CNC(=O)c3cnn4cccnc34)oc12)C(F)(F)F (single isomer, unassigned) [EXAMPLE 318, 1,1,1-Trifluoropropan-2-yl 5-fluoro-2-((pyrazolo[1,5-a]pyrimidine-3-carboxamido)methyl)benzofuran-7-carboxylate]

The next lines start with the molecule.

SMILES: O=C(OCCO)c1cccc2cc(CN3CCc4ccncc4C3=O)oc12 [EXAMPLE 211, 2-Hydroxyethyl 2-((1-oxo-3,4-dihydro-2,7-naphthyridin-2(1H)-yl)methyl)benzofuran-7-carboxylate]
- EC50 ([1]; Homo sapiens, THP1-Dual, 20 h): 31 µM
- EC50 ([2]; Homo sapiens, THP1-Dual, 20 h): 23 µM

SMILES: O=C(OC1CC(F)(F)C1(F)F)c1cc(F)cc2cc(CNC(=O)c3cnn4cccnc34)oc12 (single isomer, unassigned) [EXAMPLE 321, 2,2,3,3-Tetrafluorocyclobutyl 5-fluoro-2-((pyrazolo[1,5-a]pyrimidine-3-carboxamido)methyl)benzofuran-7-carboxylate]
- EC50 [1]: 0.38 µM
- EC50 [2]: 0.3 µM

SMILES: Cc1ccc(C(=O)OCC(F)(F)F)c2oc(Cn3ccc4ccncc4c3=O)cc12 [EXAMPLE 359]
- EC50 ([1]; Homo sapiens, THP1-Dual, 20 h): 4 µM
- EC50 ([2]; Homo sapiens, THP1-Dual, 20 h): 3.8 µM

SMILES: COC(=O)c1cccc2cc(CNC(=O)c3cnn4c(C)ccnc34)oc12 [EXAMPLE 12, Methyl 2-((7-methylpyrazolo[1,5-a]pyrimidine-3-carboxamido)methyl) benzofuran-7-carboxylate]
- EC50 [1]: 39 µM
- EC50 [2]: 33 µM

SMILES: COC(=O)c1cc(F)cc2cc(Cn3cnc4ccncc4c3=O)oc12 [EXAMPLE 39, Methyl 5-fluoro-2-((4-oxopyrido[4,3-d]pyrimidin-3(4H)-yl)methyl)benzofuran-7-carboxylate]
- EC50 ([1]; Homo sapiens, THP1-Dual, 20 h): 3.6 µM
- EC50 ([2]; Homo sapiens, THP1-Dual, 20 h): 4 µM

SMILES: CCOc1ncncc1C(=O)NCc1cc2cc(Cl)cc(C(=O)O[C@H](C)C(F)(F)F)c2o1 [EXAMPLE 263, (R)-1,1,1-trifluoropropan-2-yl 5-chloro-2-((4-ethoxypyrimidine-5-carboxamido)methyl)benzofuran-7-carboxylate]
- EC50 ([1]; Homo sapiens, THP1-Dual, 20 h): 5.2 µM
- EC50 ([2]; Homo sapiens, THP1-Dual, 20 h): 4.8 µM

SMILES: Cc1cc(C(N)=O)c2oc(CNC(=O)c3cnn4cccnc34)cc2c1 [EXAMPLE 404, N-((7-Carbamoyl-5-methylbenzofuran-2-yl)methyl)pyrazolo[1,5-a]pyrimidine-3-carboxamide]
- EC50 ([1]; Homo sapiens, THP1-Dual, 20 h): 83 µM
- EC50 ([2]; Homo sapiens, THP1-Dual, 20 h): > 100 µM

SMILES: COC(=O)c1c(C)ccc2cc(CNC(=O)c3cnn4cccnc34)oc12 [EXAMPLE 108, Methyl 6-methyl-2-((pyrazolo[1,5-a]pyrimidine-3-carboxamido)methyl)benzofuran-7-carboxylate]
- EC50 ([1]; Homo sapiens, THP1-Dual, 20 h): 31 µM
- EC50 ([2]; Homo sapiens, THP1-Dual, 20 h): 21 µM

SMILES: Cc1cc(C(=O)O[C@H](C)C(F)(F)F)c2oc(CNC(=O)c3cnn4cccnc34)c(Cl)c2c1 [EXAMPLE 300, (R)-1,1,1-Trifluoropropan-2-yl 3-chloro-5-methyl-2-((pyrazolo[1,5-a]pyrimidine-3-carboxamido)methyl)benzofuran-7-carboxylate]
- EC50 ([1]; Homo sapiens, THP1-Dual, 20 h): 0.71 µM
- EC50 ([2]; Homo sapiens, THP1-Dual, 20 h): 0.76 µM

SMILES: COC(=O)c1cc(Br)cc2cc(CN3Cc4ncncc4C3=O)oc12 [Example 83, Methyl 5-bromo-2-((5-oxo-5,7-dihydro-6H-pyrrolo[3,4-d]pyrimidin-6-yl)methyl)benzofuran-7-carboxylate]
- EC50 ([1]; Homo sapiens, THP1-Dual, 20 h): 48 µM
- EC50 ([2]; Homo sapiens, THP1-Dual, 20 h): 37 µM

SMILES: Cc1cc(C(=O)OCC(F)(F)F)c2oc(Cn3cnc4ccncc4c3=O)cc2c1 [EXAMPLE 374, 2,2,2-Trifluoroethyl 5-methyl-2-((4-oxopyrido[4,3-d]pyrimidin-3(4H)-yl)methyl)benzofuran-7-carboxylate]
- EC50 ([1]; Homo sapiens, THP1-Dual, 20 h): 3.5 µM
- EC50 ([2]; Homo sapiens, THP1-Dual, 20 h): 4.3 µM

SMILES: COC(=O)c1cc(C)cc2c(C)c(CNC(=O)c3cnn4cccnc34)oc12 [EXAMPLE 122, Methyl 3,5-dimethyl-2-((pyrazolo[1,5-a]pyrimidine-3-carboxamido)methyl)benzofuran-7-carboxylate]
- EC50 ([1]; Homo sapiens, THP1-Dual, 20 h): 0.54 µM
- EC50 ([2]; Homo sapiens, THP1-Dual, 20 h): 0.53 µM

SMILES: C[C@@H](OC(=O)Cc1cc(F)cc2cc(CNC(=O)c3cnn4cccnc34)oc12)C(F)(F)F [EXAMPLE 367, (R)-1,1,1-Trifluoropropan-2-yl 2-(5-fluoro-2-((pyrazolo[1,5-a]pyrimidine-3-carboxamido)methyl)benzofuran-7-yl)acetate]
- EC50 ([1]; Homo sapiens, THP1-Dual, 20 h): 9.5 µM
- EC50 ([2]; Homo sapiens, THP1-Dual, 20 h): 7.5 µM

Source: patent US12673954B2 (BRISTOL-MYERS SQUIBB COMPANY, priority 2021, dated 2026)
